Test results: patent US8198273B2, “Compounds and methods for kinase modulation, and indications therefor” (Plexxikon Inc., priority 2009, dated 2012)

Columns and labels:
CYP2C19 = CYP2C19 (Homo sapiens, UniProt P33261); assay: CYP2C19 inhibition (fluorescent substrate); format: in vitro ADME; details: CYP2C19, CEC substrate; read-out: Cyp IC50 2C19
How it was run: (§1)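 Human CYP activity was followed by the fluorescence of the metabolized product of a known substrate, which falls as metabolism is inhibited. Compounds from 100 mM DMSO stocks were serially diluted 1:1 over 10 points in co-factor mix and preincubated 10 min at 37 °C. IC50 was fitted from signal versus concentration.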

CYP1A2 = target: T1, CYP1A2 (Homo sapiens, UniProt P05177); assay: CYP1A2 inhibition (fluorescent substrate); format: in vitro ADME; details: CYP1A2, CEC substrate; read-out: Cyp IC50 1A2
T1 sequence (P05177 1-516): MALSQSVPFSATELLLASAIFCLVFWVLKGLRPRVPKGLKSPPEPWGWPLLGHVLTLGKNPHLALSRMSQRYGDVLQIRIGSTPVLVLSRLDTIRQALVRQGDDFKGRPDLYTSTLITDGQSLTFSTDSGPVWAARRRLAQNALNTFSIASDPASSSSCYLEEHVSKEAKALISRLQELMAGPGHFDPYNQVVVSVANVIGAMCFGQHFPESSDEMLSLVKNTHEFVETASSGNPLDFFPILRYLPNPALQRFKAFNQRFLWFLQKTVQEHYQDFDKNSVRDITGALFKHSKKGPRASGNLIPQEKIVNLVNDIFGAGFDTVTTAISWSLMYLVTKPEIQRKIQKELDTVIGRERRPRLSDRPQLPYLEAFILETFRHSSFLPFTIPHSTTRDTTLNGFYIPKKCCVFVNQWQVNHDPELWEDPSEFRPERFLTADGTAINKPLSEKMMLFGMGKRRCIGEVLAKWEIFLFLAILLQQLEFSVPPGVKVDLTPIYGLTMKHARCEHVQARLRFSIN
How it was run: as §1

CYP3A4(BFC) = CYP3A4(BFC) (Homo sapiens, UniProt P08684); assay: CYP3A4(BFC) inhibition (fluorescent substrate); format: in vitro ADME; details: read-out: Cyp IC50 3A4(BFC)
Chain of CYP3A4(BFC) (P08684 whole entry): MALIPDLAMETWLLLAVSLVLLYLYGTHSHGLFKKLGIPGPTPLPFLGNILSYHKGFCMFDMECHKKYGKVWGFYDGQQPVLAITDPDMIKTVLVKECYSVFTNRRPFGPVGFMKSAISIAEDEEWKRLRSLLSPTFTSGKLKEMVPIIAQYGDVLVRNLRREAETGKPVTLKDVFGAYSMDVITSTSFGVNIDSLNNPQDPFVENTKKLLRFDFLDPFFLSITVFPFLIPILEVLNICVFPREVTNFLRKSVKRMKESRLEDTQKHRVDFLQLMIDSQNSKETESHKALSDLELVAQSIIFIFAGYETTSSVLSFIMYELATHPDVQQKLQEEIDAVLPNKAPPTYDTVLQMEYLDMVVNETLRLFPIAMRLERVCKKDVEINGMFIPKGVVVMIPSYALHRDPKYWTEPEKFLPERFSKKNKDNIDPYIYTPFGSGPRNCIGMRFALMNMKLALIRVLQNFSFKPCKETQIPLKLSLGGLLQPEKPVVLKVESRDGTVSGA
How it was run: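 Inhibition was followed as loss of fluorescent metabolite from a known substrate, with compound in co-factor mix as a 10-point 1:1 serial dilution (100 mM DMSO stock).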

B-Raf = B-Raf (Homo sapiens, UniProt P15056); assay: B-Raf biochemical kinase inhibition (AlphaScreen, biotin-MEK1 substrate); details: 100 μM ATP
Chain of B-Raf (P15056 whole entry): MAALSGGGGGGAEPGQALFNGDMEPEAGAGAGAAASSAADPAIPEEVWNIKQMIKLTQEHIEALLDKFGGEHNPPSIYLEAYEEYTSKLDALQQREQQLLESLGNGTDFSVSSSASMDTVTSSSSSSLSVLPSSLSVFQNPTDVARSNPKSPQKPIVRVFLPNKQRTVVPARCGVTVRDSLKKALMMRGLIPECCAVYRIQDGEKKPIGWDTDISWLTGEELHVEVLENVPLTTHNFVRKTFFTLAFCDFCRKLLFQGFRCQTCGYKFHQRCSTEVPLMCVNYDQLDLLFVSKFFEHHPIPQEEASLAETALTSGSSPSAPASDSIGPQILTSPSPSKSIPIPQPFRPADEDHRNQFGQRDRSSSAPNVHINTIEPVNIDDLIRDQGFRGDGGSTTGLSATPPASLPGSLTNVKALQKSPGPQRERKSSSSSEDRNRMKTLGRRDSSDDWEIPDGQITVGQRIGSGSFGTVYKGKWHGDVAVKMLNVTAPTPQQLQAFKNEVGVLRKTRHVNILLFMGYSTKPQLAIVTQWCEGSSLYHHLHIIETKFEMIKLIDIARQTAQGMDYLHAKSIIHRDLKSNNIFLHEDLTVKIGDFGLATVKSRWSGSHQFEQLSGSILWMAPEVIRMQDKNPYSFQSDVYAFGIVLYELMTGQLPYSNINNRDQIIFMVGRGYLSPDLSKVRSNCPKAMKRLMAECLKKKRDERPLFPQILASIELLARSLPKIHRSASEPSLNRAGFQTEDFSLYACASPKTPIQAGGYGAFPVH
How it was run: (§2)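 Raf kinases phosphorylating biotin-MEK1, reaction started with ATP at 100 μM final. Compounds tested at 8 points by serial dilution from a 0.1 mM DMSO stock.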

B-Raf V600E = B-Raf V600E (Homo sapiens, UniProt P15056, V600E); assay: B-Raf V600E biochemical kinase inhibition (AlphaScreen, biotin-MEK1 substrate); details: 100 μM ATP
Chain of B-Raf V600E (P15056 whole entry V600E): as the sequence (P15056 whole entry) above, with V600E counted along it
How it was run: as §2

[1] = Relative solubility by turbidity in aqueous buffers of varying pH; format: physicochemical; details: for turbidity threshold (L, M, H) 7.4: HEPES pH 7.4; for turbidity threshold (L, M, H) 4.5: SIF pH 4.5; for turbidity threshold (L, M, H) 6.8: SIF pH 6.8; for turbidity threshold (L, M, H) 1.4: buffer pH 1.4 (SGF)
How it was run: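 Turbidity endpoint: concentration where optical density at 490, 535 and 650 nm exceeds 0.01, three-wavelength average used. Buffers at pH 1.5, 4.5, 6.8 and 7.4; DMSO serial dilutions of 25 mM stock spiked 1 μL into 99 μL buffer. Low <31.3, moderate 31.3–250, high >250 μM.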

Chain of CYP2C19 (P33261 whole entry): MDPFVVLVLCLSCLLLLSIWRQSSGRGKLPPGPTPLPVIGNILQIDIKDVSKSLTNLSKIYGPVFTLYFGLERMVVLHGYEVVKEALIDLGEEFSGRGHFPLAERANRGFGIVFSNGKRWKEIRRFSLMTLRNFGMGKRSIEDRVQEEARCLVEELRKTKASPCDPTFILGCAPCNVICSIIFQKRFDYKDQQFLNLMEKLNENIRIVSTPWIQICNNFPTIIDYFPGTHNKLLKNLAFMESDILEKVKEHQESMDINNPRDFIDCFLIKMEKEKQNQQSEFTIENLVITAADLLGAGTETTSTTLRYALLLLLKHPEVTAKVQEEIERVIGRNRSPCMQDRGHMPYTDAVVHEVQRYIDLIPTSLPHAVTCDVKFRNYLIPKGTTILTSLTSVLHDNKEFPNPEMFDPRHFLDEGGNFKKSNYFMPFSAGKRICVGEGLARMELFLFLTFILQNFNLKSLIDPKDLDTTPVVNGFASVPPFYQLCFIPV

Row | IC50 (CYP2C19) | IC50 (CYP1A2) | IC50 (CYP3A4(BFC)) | IC50 (B-Raf) | IC50 (B-Raf V600E) | SMILES | turbidity threshold (L, M, H) 7.4 [1] | turbidity threshold (L, M, H) 4.5 [1] | turbidity threshold (L, M, H) 6.8 [1] | turbidity threshold (L, M, H) 1.4 [1]
1 | > 10 µM | > 10 µM | > 10 µM | < 0.1 µM | < 0.01 µM | N#Cc1cnc2[nH]cc(C(=O)c3c(F)ccc(NS(=O)(=O)c4ccccc4F)c3F)c2c1 [P-2011, N-[3-(5-Cyano-1H-pyrrolo[2,3-b]pyridine-3-carbonyl)-2,4-difluoro-phenyl]-2-fluoro-benzenesulfonamide] | M (moderate solubility if the threshold concentration is 31.3 μM to 250 μM) | M (moderate solubility if the threshold concentration is 31.3 μM to 250 μM) | M (moderate solubility if the threshold concentration is 31.3 μM to 250 μM) | M (moderate solubility if the threshold concentration is 31.3 μM to 250 μM)
2 | > 10 µM | > 10 µM | > 10 µM | < 0.1 µM | < 0.01 µM | Cc1cnc2[nH]cc(C(=O)c3c(F)ccc(NS(=O)(=O)c4ccccc4F)c3F)c2c1 [P-2014, N-[2,4-Difluoro-3-(5-methyl-1H-pyrrolo[2,3-b]pyridine-3-carbonyl)-phenyl]-2-fluoro-benzenesulfonamide] | M (moderate solubility if the threshold concentration is 31.3 μM to 250 μM) | M (moderate solubility if the threshold concentration is 31.3 μM to 250 μM) | M (moderate solubility if the threshold concentration is 31.3 μM to 250 μM) | L (low solubility if the threshold concentration is <31.3 04)
3 | 5 to 10 µM | > 10 µM | > 10 µM | < 0.1 µM | < 0.01 µM | Cc1cnc2[nH]cc(C(=O)c3c(F)ccc(NS(=O)(=O)c4cc(F)ccc4F)c3F)c2c1 [P-2015, N-[2,4-Difluoro-3-(5-methyl-1H-pyrrolo[2,3-b]pyridine-3-carbonyl)-phenyl]-2,5-difluoro-benzenesulfonamide] | M (moderate solubility if the threshold concentration is 31.3 μM to 250 μM) | L (low solubility if the threshold concentration is <31.3 04) | M (moderate solubility if the threshold concentration is 31.3 μM to 250 μM) | M (moderate solubility if the threshold concentration is 31.3 μM to 250 μM)
4 | > 10 µM | > 10 µM | > 10 µM | < 0.1 µM | < 0.01 µM | Cc1cnc2[nH]cc(C(=O)c3c(F)ccc(NS(=O)(=O)c4cccc(F)c4)c3F)c2c1 [P-2016, N-[2,4-Difluoro-3-(5-methyl-1H-pyrrolo[2,3-b]pyridine-3-carbonyl)-phenyl]-3-fluoro-benzenesulfonamide] | M (moderate solubility if the threshold concentration is 31.3 μM to 250 μM) | L (low solubility if the threshold concentration is <31.3 04) | M (moderate solubility if the threshold concentration is 31.3 μM to 250 μM) | H (high solubility if the threshold concentration is >250 μM)
5 | > 10 µM | > 10 µM | > 10 µM | < 0.1 µM | < 0.01 µM | O=C(c1c(F)ccc(NS(=O)(=O)c2ccccc2F)c1F)c1c[nH]c2nccc(Cl)c12 [P-2017, N-[3-(4-Chloro-1H-pyrrolo[2,3-b]pyridine-3-carbonyl)-2,4-difluoro-phenyl]-2-fluoro-benzenesulfonamide] | M (moderate solubility if the threshold concentration is 31.3 μM to 250 μM) | M (moderate solubility if the threshold concentration is 31.3 μM to 250 μM) | M (moderate solubility if the threshold concentration is 31.3 μM to 250 μM) | M (moderate solubility if the threshold concentration is 31.3 μM to 250 μM)
